Literature values, collected in PMC5979345, “Identification of an ACE-Inhibitory Peptide from Walnut Protein and Its Evaluation of the Inhibitory Mechanism” (International Journal of Molecular Sciences, 2018).

Legend:
ACE [1] = details: identified from Stichopus horrens
Description: To further evaluate the active mechanism of the novel ACEI peptide, the inhibition pattern of the peptide, EPNGLLLPQY, against ACE was investigated by the Line weaver-Burk plot analysis method. […] When the EPNGLLLPQY was added to the r ...

ACE [2] = details: from walnut protein digested by neutral proteinase As1.398, 45 °C, 5 h, pH 7.0
Description: In the present study, the peptide EPNGLLLPQY was identified from the hydrolysate of walnut protein digested by […]. Moreover, there were several reports related to the peptides from walnut protein hydrolysates with ACE-inhibitory activity.

| Substance | Inhibition pattern (ACE [1]) | ACE-inhibitory activity (in words) (ACE [2]) |
| --- | --- | --- |
| EVSQGRP [food-derived peptide identified from Stichopus horrens] | mixed-type of inhibition |  |
| LPGRPPIKPWPL |  | ACE-inhibitory peptides |
| SAAVGSP [food-derived peptide identified from Stichopus horrens] | mixed-type of inhibition |  |
| VSRHFASYAN [food-derived peptide identified from Stichopus horrens] | mixed-type of inhibition |  |
| WPERPPQIP |  | ACE-inhibitory peptides |
